pIC50: −log10 of the molar value. Entries after “also recorded” stand apart in the source; their conditions may differ. Like-named read-outs stand apart in the source and are kept apart here.
Tests used:
active Rab7 = assay: Pull-down assay for active Rab7; format: cell-based, human; details: U251; 10 μM; up to 24 h
Experimental: (§1) GST-fusion proteins were produced in E. coli BL21 (DE3) pLysS and the fusion proteins were bound to glutathione-sepharose 4B beads. Pull-down assays for active Rab5 using the GST-Rabaptin-5 beads were performed. Assays for active Rab7 were performed. For each determination cell lysates were prepared from ten pooled 10 cm cultures. Monoclonal antibodies against Rab5 or Rab7 were used to probe western blots of the proteins collected on the beads. Results were quantified and normalized as described above for Rac1 and Arf6.

[1] = MTT cell viability assay, normal fibroblasts; format: cell-based; details: human, normal skin fibroblasts, 10 μM MIPP (FIG. 27), read-out: reduction in cell viability
U251 glioblastoma cells [2] = assay: MTT cell viability assay; format: cell-based, human; details: for pIC50: Homo sapiens, U-251, 48 h
active Rac1 = assay: Pull-down assay for activated Rac1; format: cell-based, human; details: U251; 10 μM MIPP; 4 h or 24 h
Experimental: (§2) Assays for activated Rac1 and Arf6 were performed using EZ-Detect Rac1 or Arf6 activation kits. These assays employ either a GST-fusion protein containing the p21-binding domain of p21-activated protein kinase 1 (PAK1) to selectively bind active Rac1 in whole cell lysates, or GST-GGA3 (Golgi-associated gamma adaptin ear-containing Arf binding protein 3) to pull down active Arf6. The active Rac1 or Arf6 collected on the glutathione beads were subjected to western blot analysis and the chemiluminescence signals were quantified using Alpha Innotech FluorChem HD2 imaging system. The values for active protein in each sample were normalized to α-tubulin. Results were expressed as either the total active Rac1 or Arf6, or the ratio of the active GTPase to the total Rac1 or Arf6 measured in aliquots of the cell lysate.

[3] = tested on: temozolomide-resistant U251 cells (U251-TR); assay: MTT cell viability assay, temozolomide-resistant cells; format: cell-based, human
active Rab5 = assay: Pull-down assay for active Rab5; format: cell-based, human; details: U251; 10 μM; 4 h and 24 h
Experimental: as §1

U251 glioblastoma cells [4] = assay: Cell morphology / vacuolization by phase-contrast microscopy; format: cell-based, human
[5] = tested on: LN229, U2OS, MCF7, SW480 and PANC-1 cancer cell lines; assay: Colony-forming assay, other cancer cell lines; format: cell-based, human; details: exposure for 2 days (FIG. 28)
Experimental: (§3) For colony-forming assays, cells were plated in 100 mm dishes at 2,500 (U251 and U251-TR) or 1,500 (all other cell lines) cells per dish. Beginning on the day after plating, the cells were exposed to 10 μM MIPP for 2 days, with the medium and drug replenished after 1 day. The cells were fed fresh medium without drug every 2 to 3 d for a period of 10-21 days. To visualize the colonies, the dishes were washed with PBS, fixed for 10 min with ice-cold 100% methanol, and stained with 1% crystal violet in 35% methanol. After 2-3 washes with water, colonies containing at least 50 cells were counted using a dissecting microscope or a Protocol 2 colony counter.
Also disclosed herein is an analysis of the effects of the compound in several other cell lines. These include an additional glioma cell line (LN229), osteosarcoma cells (U2OS), and breast (MCF7), colon (SW480) and pancreatic (PANC-1) carcinoma cells. Similar to the results with U251 cells, 10 μM MIPP induced dramatic cytoplasmic vacuolization in all of the cell lines, as shown in FIG. 26.

active Arf6 = assay: Pull-down assay for activated Arf6; format: cell-based, human; details: U251; 10 μM MIPP; 4 h or 24 h
Experimental: as §2

U251 glioblastoma cells [6] = assay: Colony-forming assay; format: cell-based, human; details: cells treated for 2 days (FIGS. 15, 40)
U251 glioblastoma cells [7] = assay: ATP level (CellTiter Glo); format: cell-based, human; details: second day after addition of MIPP (FIG. 13)
Description: To compare the levels of ATP in MIPP-treated glioblastoma cells versus controls treated with an equivalent volume of DMSO, the cells were harvested by trypsinization and assayed using the CellTiter Glo kit from Promega according to the manufacturer's instructions.

[8] = tested on: LN229, U2OS, MCF7, SW480 and PANC-1 cancer cell lines; assay: MTT cell viability assay, other cancer cell lines; format: cell-based; details: Homo sapiens; 10 μM MIPP; all of the cancer cell lines (FIG. 27); read-out: reduction of relative cell viability
[9] = MTT cell viability assay, mammary epithelial cells; format: cell-based; details: human, MCF-10A mammary epithelial cells, 10 μM MIPP (FIG. 27), read-out: reduction in cell viability
U251-TR cells = assay: Colony-forming assay, temozolomide-resistant cells; format: cell-based, human; details: 10 μM MIPP, 2 days (FIG. 21)
Experimental: as §3

Cc1[nH]c2ccccc2c1C=CC(=O)c1ccncc1 [MIPP, 3-(2-methyl-1H-indol-3-yl)-1-(4-pyridinyl)-2-propen-1-one]
amount / activation state of active Rab7 (active Rab7): more than doubling by 24 h | cytotoxicity at 10 μM [1]: 40% | pIC50 (U251 glioblastoma cells [2]; U251, two days, medium and compound replenished after the first day (FIG. 37D), read-out: IC50 (cell viability)): 5.32 | pIC50 (U251 glioblastoma cells [2]; parental U251, MTT dose-response over a 2-day period (FIG. 20), read-out: IC50, parental cells): 5.46 | relative cell viability, in words (U251 glioblastoma cells [2]; U251, 10 μM, first two days of treatment (FIG. 12)): marked decrease in the relative cell viability | amount of active Rac1 (active Rac1): no significant effects | methuosis and cell viability in TMZ-resistant cells, in words ([3]; FIGS. 41A-41B): induced methuosis and reduced cell viability in the TMZ-resistant cells | pIC50 ([3]; Homo sapiens, U-251, 48 h, U251-TR, MTT dose-response over a 2-day period (FIG. 20)): 5.22 | amount of active Rab5 (active Rab5): striking decline in the amount of active Rab5 | cell morphology / vacuolization (U251 glioblastoma cells [4]; 1 μM): behaved similarly to Compound I when tested at 1 μM | cell morphology / vacuolization (U251 glioblastoma cells [4]; 10 μM): induced vacuoles that were larger and more numerous than those induced by Compound I | long-term cell survival (colony formation) [5]: significantly reduced long-term cell survival in all cases | amount of active Arf6 (active Arf6): no significant effects | colony formation (U251 glioblastoma cells [6]): non-viable in colony-forming assays; also recorded: reduced colony formation | ATP level (U251 glioblastoma cells [7]): significant decrease in ATP | cytotoxicity at 10 μM [8]: 50 to 90% | cytotoxicity at 10 μM [9]: 30% | survival (colony formation) (U251-TR cells): significant decline in survival

Source: patent publication US9061994B1, “Materials and methods useful to induce vacuolization, cell death, or a combination thereof” (The University of Toledo, priority 2011, dated 2015)
